In paper PMC11056381, “Characterization and evaluation of cytotoxic and antimicrobial activities of cyclotides from Viola japonica” (Scientific Reports, 2024):
Residues, ends and D or L forms follow the SMILES beside them.

Test system: Bacillus subtilis
Test: DAPI/PI staining, laser scanning confocal microscopy (membrane integrity)
Type: cell-based
Details: B. subtilis 10^8 CFU/mL, 37 °C, 1-2 h, DAPI and PI staining
Excerpt: Many naturally occurring antimicrobial peptides (AMPs) are cationic. Cationic AMPs (CAMPs) exert bactericidal activity by mechanisms featuring cell membrane disruption. Cyclotides are likely to kill germ by disrupting their membranes. Laser scanning confocal microscopy can be used to study the ability of cyclotides to destroy bacterial membrane. 4′, 6-diaminyl-2-phenylindole (DAPI) is a blue fluorescent dye that can penetrate membranes and stain both living and dead strains, while propyl iodide (PI) stains only strains with damaged membranes, glowing red[46],[47]. In this study, the bracelet cyclotide family members viba 11 and vija 10 interacted with A. baumannii and B. subtilis in their logarithmic phase at 37 °C for 1–2 h. After the addition of DAPI and PI fluorescent dyes, the samples were incubated in a dark room at room temperature for 15 min for staining. The stained samples were then centrifuged to concentrate, resuspended, and applied to a slide for observation using a confocal laser scanning microscope (FLUOVIEW FV3000, Olympus). […] With increasing concentration, the blue and red fluorescence gradually overlapped. […] However, the magnification is not sufficient to detect further details of membrane disruption. Therefore, further exploration can be conducted using methods such as scanning electron microscopy (SEM) to study the antibacterial mechanism in depth.
Figure 5 Study on the antimicrobial mechanism of cyclotides. (A) Incubation of Acinetobacter baumannii with sterile water, 1 MIC and 4 MIC of viba 11. (B) Incubation of Bacillus subtilis with sterile water, 1 MIC and 4 MIC of vija 10. All samples were stained with DAPI and PI. The negative control group PI is not stained and the membrane is intact, while the membrane treated with cyclotides was stained and the membrane are destroyed. Scale bar: 20 μm. Magnification: 600×.
Take 50 μL of A. baumannii and B. subtilis (10^8 CFU/mL), and add 50 μL of sterile water, different concentrations of cyclotides viba 11 and vija 10 to achieve final concentrations of 1 MIC and 4 MIC respectively. Incubate at 37 °C for 1–2 h. Subsequently, add 4,6-diamino-2-phenylindole (DAPI) and propidium iodide (PI) dyes at 20 μg/mL each, and incubate in the dark for 15 min. Centrifuge at 5000 rpm for 3 min to concentrate, discard the majority of the supernatant, and resuspend the bacteria in the remaining small volume of liquid. Mix well and take 10 μL of the stained sample onto a glass slide, gently place a cover slip on top with forceps, avoiding the formation of bubbles during the pressing process. After sealing the cover slip, check with a laser confocal microscope, and the observation was conducted using an objective lens with the maximum magnification of 60 × . […]

CC[C@H](C)[C@@H]1NC(=O)[C@@H]2CSSC[C@@H]3NC(=O)[C@H](C(C)C)NC(=O)[C@H](CCCCN)NC(=O)[C@H](CO)NC(=O)[C@H](CO)NC(=O)[C@@H]4CSSC[C@H](NC(=O)[C@H](CO)NC(=O)[C@H](CCC(=O)O)NC(=O)CNC(=O)[C@H](CSSC[C@H](NC(=O)CNC(=O)[C@H](CC(C)C)NC(=O)[C@H](CC(C)C)NC(=O)[C@H](C)NC(=O)[C@H](CO)NC1=O)C(=O)N[C@@H](CO)C(=O)N4)NC(=O)[C@@H]1CCCN1C(=O)[C@H]([C@@H](C)CC)NC(=O)[C@H](CO)NC(=O)CNC(=O)[C@H](CC(N)=O)NC(=O)[C@H](CCCCN)NC(=O)[C@H](Cc1ccc(O)cc1)NC3=O)C(=O)N[C@@H](C(C)C)C(=O)N[C@@H](Cc1ccccc1)C(=O)N[C@@H]([C@@H](C)CC)C(=O)N1CCC[C@H]1C(=O)N2 [vija 10] (HELM PEPTIDE1{A.L.L.G.C.S.C.S.S.K.V.C.Y.K.N.G.S.I.P.C.G.E.S.C.V.F.I.P.C.I.S}$PEPTIDE1,PEPTIDE1,5:R3-20:R3|PEPTIDE1,PEPTIDE1,7:R3-24:R3|PEPTIDE1,PEPTIDE1,12:R3-29:R3|PEPTIDE1,PEPTIDE1,1:R1-31:R2$$$V2.0)
membrane integrity (PI red fluorescence) (1 MIC): caused damage to the membrane integrity | membrane integrity (PI red fluorescence) (4 MIC): majority of the cell membranes were ruptured
